For one assay, the system named is GLI3. Put plainly: Western blot of full-length versus truncated repressor GLI3. The format is cell-based, human. Conditions: cultures maintained in 3 and 6 μM CHIR during PM/SHH exposure, day 6. As for the experimental part: To begin, we sequentially differentiated H9 hESCs in E6 media for 1 day, and FGF8b (200 ng/mL) for 1 day, and FGF8b and CHIR (3 μM) for 2 days to generate cervical neuromesoderm (FIGS. 5A-5B). Then, we screened the effects of CHIR, PM, and SHH treatment on NKX6.1^+/PAX6^+/OLIG2^+ motor neuron progenitor induction while transitioning to media containing 1 μM RA (FIGS. 5A-5D). Prior to the addition of RA, NKX6.1 was expressed in the cervical neuromesodermal state at day 4 (80±18% NKX6.1^+; data not shown), likely due to the CHIR-induced Wnt/β-catenin signaling (FIGS. 4A-4H). Transitioning the neuromesodermal progenitors to RA-containing media for 2 days induced HOXB4^+/HOXC6^+/HOXC9^−/HOXD10^−/PAX6^+ cervical neuroectoderm in all conditions (FIGS. 5B-5C), as expected. However, without co-activation of SHH signaling by PM or SHH, NKX6.1 expression was quickly lost by day 6 (97±1% PAX6^+, 17±3% NKX6.1^+) (FIG. 5C). […] To bolster this claim, we also analyzed the abundance of full-length GLI3 versus its truncated repressor form by western blot. […]
Cells were washed with cold PBS, harvested with accutase, and pelleted by centrifugation. […] Immunostained bands were detected using the SuperSignal West Pico Chemiluminescent Substrate kit (Thermo Fisher Scientific). […]
Background: In western blotting, separated proteins are transferred to a membrane and probed.

For a further assay, the system named is H9 hESCs. As to the kind of experiment: Induction of NKX6.1+/PAX6+/OLIG2+ motor neuron progenitors from cervical neuromesoderm (flow cytometry, immunocytochemistry). It is filed as cell-based, human. As for the experimental part:
To begin, we sequentially differentiated H9 hESCs in E6 media for 1 day, and FGF8b (200 ng/mL) for 1 day, and FGF8b and CHIR (3 μM) for 2 days to generate cervical neuromesoderm (FIGS. 5A-5B). Then, we screened the effects of CHIR, PM, and SHH treatment on NKX6.1^+/PAX6^+/OLIG2^+ motor neuron progenitor induction while transitioning to media containing 1 μM RA (FIGS. 5A-5D). Prior to the addition of RA, NKX6.1 was expressed in the cervical neuromesodermal state at day 4 (80±18% NKX6.1^+; data not shown), likely due to the CHIR-induced Wnt/β-catenin signaling (FIGS. 4A-4H). Transitioning the neuromesodermal progenitors to RA-containing media for 2 days induced HOXB4^+/HOXC6^+/HOXC9^−/HOXD10^−/PAX6^+ cervical neuroectoderm in all conditions (FIGS. 5B-5C), as expected. However, without co-activation of SHH signaling by PM or SHH, NKX6.1 expression was quickly lost by day 6 (97±1% PAX6^+, 17±3% NKX6.1^+) (FIG. 5C). […] To bolster this claim, we also analyzed the abundance of full-length GLI3 versus its truncated repressor form by western blot. […] Thus, Wnt/β-catenin signaling is necessary to induce ventral identity, but its continuous activation during OLIG2 induction by SHH signaling is detrimental to motor neuron differentiation, possibly due to activation of the GLI3 repressor.
Next, we tested conditions where CHIR was removed after transitioning to media containing RA (1 μM), PM (2 μM), and SHH (2 μg/mL) (FIGS. 5A-5C).
Since NKX6.1 is a pre-requisite to OLIG2 expression, we hypothesized that the Wnt/β-catenin signaling-dependent NKX6.1 expression levels may still be too low for efficient OLIG2^+ motor neuron progenitor induction. Therefore, the concentration of CHIR was boosted to 6 or 9 μM for 6 h immediately prior to transitioning to E6 medium containing RA, PM, and SHH without CHIR (FIG. 5A). The 9 μM CHIR boost followed by a transition to media containing 1 μM RA, 2 μM PM, and 2 μg/mL SHH yielded optimal motor neuron progenitor cultures with highly uniform NKX6.1, OLIG2, and PAX6 expression (96±1%, 85±9%, and 97±2%, respectively) (FIGS. 5C-5D).
hESCs were dissociated with accutase (Thermo Fisher Scientific) and reseeded at 1×10^5 cells/cm2 in E8 medium containing 10 μM ROCK inhibitor (Y27632; R&D Systems) on 6-well polystyrene tissue culture plates coated with 100 μg/mL poly-L-ornithine (PLO; Sigma) and 8 μg/well VTN-NC. The timelines and relevant growth factors/small molecules for all differentiation procedures are described in detail in the Results section and its accompanying figures. Cells were differentiated for various amounts of time in E6 medium containing the same insulin concentration as E8 medium as described above with varying combinations of soluble factors (product information and concentration ranges are found in Table 2). For neuromesodermal induction and HOX propagation, cells were sequentially cultured with FGF8b, CHIR99021 (CHIR), GDF11, and dorsomorphin (DM) as previously described. Briefly, to initiate the neuromesodermal state, cells were changed to E6 medium followed by addition of FGF8b (200 ng/ml) 24 h later. To generate cervical neuromesodermal progenitors, cells were washed with PBS, treated with accutase, and re-seeded in E6 medium containing 200 ng/ml FGF8b, 3 μM CHIR, and 10 μM Y27632 on VTN-NC-coated plates at a density of 1.5×10^5 cells/cm^2 for 48 h. To generate thoracic neuromesodermal progenitors, cells were passaged again after 72 h of CHIR treatment and re-seeded at different densities as described in the text.
Thoracic identity was reached after an additional 24 h. Then, to reach the lumbosacral level, cells were given 30 ng/ml GDF11 and 1 μM DM for an additional 48 h. For neuroectoderm induction and generation of OLIG2^+ progenitors, FGF8b was removed at the designated time points and the concentration of CHIR was increased for 6 h as described in the text, followed by a transition to media containing RA, PM, and SHH for a period of 48 h. […]
Background: In flow cytometry, cells or beads pass a laser one at a time.

[1] abbreviates: 9 μM CHIR boost 6 h, then 1 μM RA, 2 μM PM, 2 μg/mL SHH without CHIR, day 6.
Where [2] appears, read: CHIR continued at 3 μM with RA, PM 2 μM, SHH 2 μg/mL, day 6.
Where [3] appears, read: CHIR continued at 6 μM with RA, PM, SHH, day 6.

For `Cc1c[nH]c(-c2cnc(NCCNc3ccc(C#N)cn3)nc2-c2ccc(Cl)cc2Cl)n1` [CHIR, CHIR99021], in the assay on GLI3, the “GLI3 truncated repressor form level (western blot)” value is on record as “increased levels of the GLI3 truncated repressor form”. For the same compound, in the assay on H9 hESCs (setting [1]), the NKX6.1 expression came to 96±1%, the OLIG2 expression is 85±9% and the PAX6 expression amounted to 97±2%. In the assay on H9 hESCs (setting [2]), the “NKX6.1 and PAX6/SOX2 neuroectoderm marker expression” value is “uniformly expressed”; the OLIG2 induction entry is “minimal OLIG2 was induced”. Also, in the assay on H9 hESCs (setting [3]), the OLIG2 induction result is recorded as “OLIG2 was still not induced”, the PAX6 expression entry is given as “PAX6 expression was diminished” and the PAX7 detection entry is “no PAX7 was detected”. In addition, the “NKX6.1+ cells in cervical neuromesodermal state” value in the assay with H9 hESCs (FGF8b 200 ng/mL and CHIR 3 μM for 2 days, day 4, before RA) is on record as 80±18%.
